Source: patent US12679878B2, “CRF2 receptor agonists and their use in therapy” (SANOFI, priority 2020, dated 2026)
Read-outs that look alike come from different tables or passages of the source. Starred links: 1 amine or outer side, 2 acyl side, 3 side chain; linkers in the order of their positions; H or OH if unused. Non-standard residues stand in square brackets, D forms with d. Residues, ends and D or L forms follow the SMILES beside them. Groups on a side chain read outwards from the residue. No end group written: not given here. *: point of attachment. C18 diacid = O=C(O)CCCCCCCCCCCCCCCCC(=O)*; γGlu = O=C(O)[C@H](CCC(=O)[*:2])N[*:1]; Palmitoyl = CCCCCCCCCCCCCCCC(=O)*; AEEA = NCCOCCOCC(=O)O; Aib = CC(C)(N)C(=O)O

T1: human CRF2α receptor (Homo sapiens, UniProt Q13324)
T1 construct: expressed in transfected cells; host or cells: TeloHEAC
T1 sequence (Q13324 1-411): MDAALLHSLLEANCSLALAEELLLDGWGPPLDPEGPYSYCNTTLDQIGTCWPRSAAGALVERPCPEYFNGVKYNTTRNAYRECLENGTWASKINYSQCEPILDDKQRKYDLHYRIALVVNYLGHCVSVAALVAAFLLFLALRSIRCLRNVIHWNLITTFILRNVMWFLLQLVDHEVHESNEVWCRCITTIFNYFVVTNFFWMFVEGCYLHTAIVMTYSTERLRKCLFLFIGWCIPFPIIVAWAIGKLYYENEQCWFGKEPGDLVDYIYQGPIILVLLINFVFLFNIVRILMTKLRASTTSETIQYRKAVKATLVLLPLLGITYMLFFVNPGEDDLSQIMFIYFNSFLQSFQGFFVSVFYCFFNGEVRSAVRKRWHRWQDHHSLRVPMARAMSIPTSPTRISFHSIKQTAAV

T2: CRF1R receptor (Homo sapiens, UniProt P34998)
T2 construct: host or cells: CHO-K1 clone 2
T2 sequence (P34998 24-415): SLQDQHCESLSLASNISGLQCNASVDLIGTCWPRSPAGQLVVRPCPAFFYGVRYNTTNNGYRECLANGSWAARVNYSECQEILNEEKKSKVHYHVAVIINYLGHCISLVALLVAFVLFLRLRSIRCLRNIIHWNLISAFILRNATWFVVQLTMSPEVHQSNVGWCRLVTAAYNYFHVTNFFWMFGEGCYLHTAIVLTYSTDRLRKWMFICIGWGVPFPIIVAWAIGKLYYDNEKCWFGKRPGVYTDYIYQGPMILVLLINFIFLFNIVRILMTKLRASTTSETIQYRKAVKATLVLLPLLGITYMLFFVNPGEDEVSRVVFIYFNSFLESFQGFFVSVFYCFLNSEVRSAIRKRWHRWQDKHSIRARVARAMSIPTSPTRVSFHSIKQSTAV

T3: anti-target CRF1R receptor (UniProt P34998 24-415, limits assumed)
T3 sequence (looked up): T2 sequence (P34998 24-415)

B1: peptide of SEQ ID NO: 4 (peptide)
peptide: IVLSLDVPIGLK([γGlu-Palmitoyl])QKLLKQEKQEKEKQQAETNAKILAQV-NH2
modifications: N-terminus assumed
SMILES: CCCCCCCCCCCCCCCC(=O)N[C@@H](CCC(=O)NCCCC[C@H](NC(=O)[C@H](CC(C)C)NC(=O)CNC(=O)[C@@H](NC(=O)[C@@H]1CCCN1C(=O)[C@@H](NC(=O)[C@H](CC(=O)O)NC(=O)[C@H](CC(C)C)NC(=O)[C@H](CO)NC(=O)[C@H](CC(C)C)NC(=O)[C@@H](NC(=O)[C@@H](N)[C@@H](C)CC)C(C)C)C(C)C)[C@@H](C)CC)C(=O)N[C@@H](CCC(N)=O)C(=O)N[C@@H](CCCCN)C(=O)N[C@@H](CC(C)C)C(=O)N[C@@H](CC(C)C)C(=O)N[C@@H](CCCCN)C(=O)N[C@@H](CCC(N)=O)C(=O)N[C@@H](CCC(=O)O)C(=O)N[C@@H](CCCCN)C(=O)N[C@@H](CCC(N)=O)C(=O)N[C@@H](CCC(=O)O)C(=O)N[C@@H](CCCCN)C(=O)N[C@@H](CCC(=O)O)C(=O)N[C@@H](CCCCN)C(=O)N[C@@H](CCC(N)=O)C(=O)N[C@@H](CCC(N)=O)C(=O)N[C@@H](C)C(=O)N[C@@H](CCC(=O)O)C(=O)N[C@H](C(=O)N[C@@H](CC(N)=O)C(=O)N[C@@H](C)C(=O)N[C@@H](CCCCN)C(=O)N[C@H](C(=O)N[C@@H](CC(C)C)C(=O)N[C@@H](C)C(=O)N[C@@H](CCC(N)=O)C(=O)N[C@H](C(N)=O)C(C)C)[C@@H](C)CC)[C@@H](C)O)C(=O)O

Tests used:
[1] = target: T1, human CRF2α receptor; assay: cAMP agonism at human CRF2 α receptor in TeloHEAC cells (Example 7); assay type: cell-based; details: cAMP HTRF, TeloHEAC cells stably expressing human CRF2 α
How it was run: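 Steps: thaw and wash cells; suspend in 1×HBSS, 20 mM HEPES, 0 or 0.1% HSA, 2 mM IBMX; add compound, 30 min RT; lyse with HTRF reagents, 1 h; read 665/620 nm. EC50 calculated, E% versus 1000 nM UCN2.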

[2] = target: T2, CRF1R receptor; assay: cAMP activity at anti-target CRF1R, CHO-K1 cell line clone 2 (Example 19.10); assay type: cell-based; details: CRF1R CHO-K1 clone 2; for EC50: 0% HSA, read-out: EC50 [nM] 0% HSA; for Emax: 100% = Sauvagine at 100 nM
How it was run: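 The cAMP read-out used the same protocol as the previous assay, except that Sauvagine at 100 nM set the 100% activation control. Cells were CHO-K1 clone 2 overexpressing CRF1R, cultured in F12 medium with 10% FBS and G418 and stored frozen until use.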

[3] = target: T3, anti-target CRF1R receptor; assay: cell-based or functional assay
[4] = 0% HSA, read-out: EC50 [nM], 0% HSA
[5] = 0.1% HSA, read-out: EC50 [nM], 0.1% HSA

Molecule | EC50 [1, 4] | EC50 [1, 5] | EC50 [2] | Emax [2] | EC50[nM] 0% HSA (cAMP, CRF1R-overexpression CHO cells) [3] | Emax (%) (cAMP, CRF1R-overexpression CHO cells) [3]
CC[C@H](C)[C@H](N)C(=O)N[C@H](C(=O)N[C@@H](CC(C)C)C(=O)N[C@@H](CO)C(=O)N[C@@H](CC(C)C)C(=O)N[C@@H](CC(=O)O)C(=O)N[C@@H](C(=O)N1CCC[C@H]1C(=O)N[C@H](C(=O)N[C@@H](CCCCN)C(=O)N[C@@H](CC(C)C)C(=O)N[C@@H](CCCCNC(=O)COCCOCCNC(=O)COCCOCCNC(=O)CC[C@H](NC(=O)CCCCCCCCCCCCCCCCC(=O)O)C(=O)O)C(=O)N[C@@H](CCC(N)=O)C(=O)N[C@H](C(=O)N[C@@H](CC(C)C)C(=O)N[C@@H](CC(C)C)C(=O)N[C@@H](CCCCN)C(=O)N[C@@H](CCC(N)=O)C(=O)N[C@@H](CCC(=O)O)C(=O)N[C@@H](CCCNC(=N)N)C(=O)N[C@@H](CCC(N)=O)C(=O)N[C@@H](CCCCN)C(=O)N[C@@H](CCCCN)C(=O)NC(C)(C)C(=O)N[C@@H](CCCNC(=N)N)C(=O)N[C@@H](CCC(=O)O)C(=O)N[C@@H](CCC(N)=O)C(=O)N[C@@H](C)C(=O)N[C@@H](CCC(=O)O)C(=O)N[C@H](C(=O)N[C@@H](CC(N)=O)C(=O)N[C@@H](CCCCN)C(=O)N[C@@H](CCCNC(=N)N)C(=O)N[C@H](C(=O)N[C@@H](CC(C)C)C(=O)N[C@@H](CCC(=O)O)C(=O)N[C@@H](CCCNC(=N)N)C(=O)N[C@H](C(N)=O)C(C)C)[C@@H](C)CC)[C@@H](C)O)[C@@H](C)CC)[C@@H](C)CC)C(C)C)C(C)C [compound 149] (H-IVLSLD[dV]PIKLK([AEEA-AEEA-γGlu-C18 diacid])QILLKQERQKK[Aib]REQAETNKRILERV-NH2; N-terminus assumed) | 0.06 nM | 2.54 nM | > 100 nM | 6.6% | – | –
CC[C@H](C)[C@H](N)C(=O)N[C@H](C(=O)N[C@@H](CC(C)C)C(=O)N[C@@H](CO)C(=O)N[C@@H](CC(C)C)C(=O)N[C@@H](CC(=O)O)C(=O)N[C@@H](C(=O)N1CCC[C@H]1C(=O)N[C@H](C(=O)NCC(=O)N[C@@H](CC(C)C)C(=O)N[C@@H](CCCCNC(=O)COCCOCCNC(=O)COCCOCCNC(=O)CC[C@H](NC(=O)CCCCCCCCCCCCCCCCC(=O)O)C(=O)O)C(=O)N[C@@H](CCC(N)=O)C(=O)N[C@H](C(=O)N[C@@H](CC(C)C)C(=O)N[C@@H](CC(C)C)C(=O)N[C@@H](CCCCN)C(=O)N[C@@H](CCC(N)=O)C(=O)N[C@@H](CCC(=O)O)C(=O)N[C@@H](CCCNC(=N)N)C(=O)N[C@@H](CCC(N)=O)C(=O)N[C@@H](CCCCN)C(=O)N[C@@H](CCCCN)C(=O)NC(C)(C)C(=O)N[C@@H](CCCNC(=N)N)C(=O)N[C@@H](CCC(N)=O)C(=O)N[C@@H](CCC(N)=O)C(=O)N[C@@H](C)C(=O)N[C@@H](CCC(=O)O)C(=O)N[C@H](C(=O)N[C@@H](CC(N)=O)C(=O)N[C@@H](CCCCN)C(=O)N[C@@H](CCCNC(=N)N)C(=O)N[C@H](C(=O)N[C@@H](CC(C)C)C(=O)N[C@@H](CCC(=O)O)C(=O)N[C@@H](CCCNC(=N)N)C(=O)N[C@H](C(N)=O)C(C)C)[C@@H](C)CC)[C@@H](C)O)[C@@H](C)CC)[C@@H](C)CC)C(C)C)C(C)C [compound 150] (H-IVLSLD[dV]PIGLK([AEEA-AEEA-γGlu-C18 diacid])QILLKQERQKK[Aib]RQQAETNKRILERV-NH2; N-terminus assumed) | 0.07 nM | 3.99 nM | > 100 nM | 7.2% | – | –
CC[C@H](C)[C@H](N)C(=O)N[C@H](C(=O)N[C@@H](CC(C)C)C(=O)N[C@@H](CO)C(=O)N[C@@H](CC(C)C)C(=O)N[C@@H](CC(=O)O)C(=O)N[C@H](C(=O)N1CCC[C@H]1C(=O)N[C@H](C(=O)N[C@@H](CCCCN)C(=O)N[C@@H](CC(C)C)C(=O)N[C@@H](CCCCNC(=O)COCCOCCNC(=O)COCCOCCNC(=O)CC[C@H](NC(=O)CCCCCCCCCCCCCCCCC(=O)O)C(=O)O)C(=O)N[C@@H](CCC(N)=O)C(=O)N[C@H](C(=O)N[C@@H](CC(C)C)C(=O)N[C@@H](CC(C)C)C(=O)N[C@@H](CCCCN)C(=O)N[C@@H](CCC(N)=O)C(=O)N[C@@H](CCC(=O)O)C(=O)N[C@@H](CCCNC(=N)N)C(=O)N[C@@H](CCC(N)=O)C(=O)N[C@@H](CCCCN)C(=O)N[C@@H](CCCCN)C(=O)NC(C)(C)C(=O)N[C@@H](CCCNC(=N)N)C(=O)N[C@@H](CCC(=O)O)C(=O)N[C@@H](CCC(N)=O)C(=O)N[C@@H](C)C(=O)N[C@@H](CCC(=O)O)C(=O)N[C@H](C(=O)N[C@@H](CC(N)=O)C(=O)N[C@@H](CCCCN)C(=O)N[C@@H](CCCNC(=N)N)C(=O)N[C@H](C(=O)N[C@@H](CC(C)C)C(=O)N[C@@H](CCC(=O)O)C(=O)N[C@@H](CCCNC(=N)N)C(=O)N[C@H](C(N)=O)C(C)C)[C@@H](C)CC)[C@@H](C)O)[C@@H](C)CC)[C@@H](C)CC)C(C)C)C(C)C [compound 152] (H-IVLSLDVPIKLK([AEEA-AEEA-γGlu-C18 diacid])QILLKQERQKK[Aib]REQAETNKRILERV-NH2; N-terminus assumed) | 0.09 nM | 4.94 nM | > 100 nM | 4.9% | – | –
CC[C@H](C)[C@H](N)C(=O)N[C@H](C(=O)N[C@@H](CC(C)C)C(=O)N[C@@H](CO)C(=O)N[C@@H](CC(C)C)C(=O)N[C@@H](CC(=O)O)C(=O)N[C@H](C(=O)N1CCC[C@H]1C(=O)N[C@H](C(=O)NCC(=O)N[C@@H](CC(C)C)C(=O)N[C@@H](CCCCNC(=O)COCCOCCNC(=O)COCCOCCNC(=O)CC[C@H](NC(=O)CCCCCCCCCCCCCCCCC(=O)O)C(=O)O)C(=O)N[C@@H](CCC(N)=O)C(=O)N[C@H](C(=O)N[C@@H](CC(C)C)C(=O)N[C@@H](CC(C)C)C(=O)N[C@@H](CCCCN)C(=O)N[C@@H](CCC(N)=O)C(=O)N[C@@H](CCC(=O)O)C(=O)N[C@@H](CCCNC(=N)N)C(=O)N[C@@H](CCC(N)=O)C(=O)N[C@@H](CCCCN)C(=O)N[C@@H](CCCCN)C(=O)NC(C)(C)C(=O)N[C@@H](CCCNC(=N)N)C(=O)N[C@@H](CCC(=O)O)C(=O)N[C@@H](CCC(N)=O)C(=O)N[C@@H](C)C(=O)N[C@@H](CCC(=O)O)C(=O)N[C@H](C(=O)N[C@@H](CC(N)=O)C(=O)N[C@@H](C)C(=O)N[C@@H](CCC(N)=O)C(=O)N[C@H](C(=O)N[C@@H](CC(C)C)C(=O)N[C@@H](C)C(=O)N[C@@H](CCC(N)=O)C(=O)N[C@H](C(N)=O)C(C)C)[C@@H](C)CC)[C@@H](C)O)[C@@H](C)CC)[C@@H](C)CC)C(C)C)C(C)C [compound 156] (H-IVLSLDVPIGLK([AEEA-AEEA-γGlu-C18 diacid])QILLKQERQKK[Aib]REQAETNAQILAQV-NH2; N-terminus assumed) | 1.06 nM | – | > 100 nM | 4% | – | –
B1 | – | – | – | – | > 1000 nM | 17.4%
